These are literature values, as cited in patent US6896899B2, “Pharmaceutical preparations of glutathione and methods of administration thereof” (Antioxidant Pharmaceuticals Corp., priority 1996, dated 2005).

One series deals with HIV. The settings on record: acutely infected cells, chronically infected cells, normal peripheral blood mononuclear cells.
The conditions of series [1]: human, in vivo, po, 15 mg/kg.
The conditions of series [2]: human, in vivo, iv.
The next series relates to Mouse. The settings on record: GSH pretreatment.
The test system of another series is blood pressure. The settings on record: 3,699 mg dose, normal subjects.
Another series has as its system hematologic parameters. The settings on record: 1,200 mg/day intravenously.

For `CC(=O)N[C@@H](CS)C(=O)O` [NAC, N-acetyl cysteine], the “cytokine-stimulated HIV expression and replication” value in the series with HIV is given as “can inhibit”.

Turning to `N[C@@H](CCC(=O)N[C@@H](CS)C(=O)NCC(=O)O)C(=O)O` [GSH, gamma-glutamyl-cysteinyl-glycine], the “plasma glutathione levels over the basal concentration” value in series [1] is given as 1.5-10 fold. In addition, the “volume of distribution of exogenous glutathione” value in series [2] was 176-107 Ml/Kg. In addition, the “protection against morphine-induced lethality” value in the series on Mouse was “protects against morphine-induced lethality”. Moreover, the “cytokine-stimulated HIV expression and replication” value in the series on HIV is “can inhibit”. The “tumor growth and survival” value in the series with hepatocellular carcinoma (5 g oral GSH per day) is “Two of the female patients survived 1 year and exhibited regression or stagnation of their tumor growth”. In addition, the side-effects result in the series on hepatocellular carcinoma (human, in vivo, po) is on record as “Two patients withdrew shortly after receiving GSH due to intolerable side-effects”. The blood pressure result in the series on blood pressure is reported as “significant decrease”. Further, the “hematologic parameters (hematocrit, hemoglobin, blood count) compared to baseline” value in the series on hematologic parameters is on record as “significantly increase”.
